The target of test [1] is T1, human NPFF2 receptor (Homo sapiens, UniProt Q9Y5X5).
T1 construct: one of these, B089, was determined to be a full length clone with no point mutations; expressed in transfected cells; host or cells: not given
The test is described as follows: Functional assay (agonist potency, intrinsic activity) at cloned human NPFF2 receptor. It counts as cell-based. As to conditions: Table 6, intrinsic activity.

For test [2], the target named is T2, human α2B adrenergic receptor (Homo sapiens, UniProt P18089).
T2 construct: host or cells: LM(tk-) cells, line L-NGC-α2B
T2 sequence (P18089 1-450): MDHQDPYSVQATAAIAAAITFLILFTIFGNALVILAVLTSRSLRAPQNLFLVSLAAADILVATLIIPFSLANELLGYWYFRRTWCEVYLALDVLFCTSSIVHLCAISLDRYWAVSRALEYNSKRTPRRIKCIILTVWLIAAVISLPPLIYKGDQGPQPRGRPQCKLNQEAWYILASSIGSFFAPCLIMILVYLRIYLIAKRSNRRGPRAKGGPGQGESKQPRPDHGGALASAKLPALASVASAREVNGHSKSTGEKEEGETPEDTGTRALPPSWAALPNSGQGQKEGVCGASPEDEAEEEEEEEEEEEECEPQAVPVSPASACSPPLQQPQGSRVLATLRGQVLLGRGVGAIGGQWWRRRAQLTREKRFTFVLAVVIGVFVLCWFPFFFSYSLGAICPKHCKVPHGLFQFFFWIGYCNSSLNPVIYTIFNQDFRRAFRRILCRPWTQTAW
As to the kind of experiment: Binding at human α2B adrenergic receptor. The conditions noted are these: Table 8; read-out: hα2B Ki. An excerpt:
(§1) α2 Human Adrenergic Receptors: To determine the binding of compounds to human α2 receptors, LM(tk−) cell lines stably transfected with the genes encoding the α2A, α2B, and α2C receptors were used. The cell line expressing the α2A receptor is designated L-α2A, and was deposited on Nov. 6, 1992, under ATCC Accession No. CRL 11180. The cell line expressing the α2B receptor is designated L-NGC-α2B, and was deposited on Oct. 25, 1989, under ATCC Accession No. CRL 10275. The cell line expressing the α2C receptor is designated L-α2C, and was deposited on Nov. 6, 1992, under ATCC Accession No. CRL-11181. Cell lysates were prepared as described herin, and suspended in 25 mM glycyiglycine buffer (pH 7.6 at room temperature). Equilibrium competition binding assay were performed using […] (0.5 nM), and nonspecific binding was determined by incubation with 10 μM phentolamine. The bound radioligand was separated by filtration through GF/B filters using a cell harvester.
(§2) The binding affinity (Ki) of these compounds were tested according to the protocols described herein at the following receptors; human α1A, α1B, α1D, α2A, α2B, and α2C adrenergic receptors; human Y1, Y2, Y4, and Y5 receptors; and N-Methyl-D-aspartic acid (NMDA) receptor channels. The binding interactions of these compounds were additionally tested at the norepinephrine (NE) transporter (NE uptake) and serotonin (5-hydroxytryptamine (5HT)) transporter (5HT uptake) according to protocols described herein

The target in test [3] is N-methyl-D-aspartate (NMDA) receptor channel complex. The test is described as follows: Binding at native NMDA receptor channels. The conditions noted are these: Table 8. Set-up: species or system rat. The procedure: NMDA Receptor Channels: The methods to determine binding affinity at native N-methyl-D-aspartate (NMDA) receptor channels are described in Wong E. H. et al. (1988), the disclosure of which is hereby incorporated by reference in its entirety into this application.
as §2

The target in test [4] is T3, norepinephrine (NE) transporter (Rattus norvegicus, UniProt Q63380).
T3 construct: evaluated at native, tissue-derived transporters; from tissue
The test is described as follows: Binding at native norepinephrine transporter (NE uptake). The conditions noted are these: Table 8. The procedure:
(§3) Transporters: The binding properties of compounds were evaluated at native, tissue-derived transporters, namely serotonin (5HT) transporter and norepinephrine (NE) transporter, according to protocols described in Owens (1997), the disclosure of which is hereby incorporated by reference in its entirety into this application.
as §2

Test [5] has as its target T4, human α2A adrenergic receptor (Homo sapiens, UniProt P08913).
T4 construct: host or cells: LM(tk-) cells, line L-α2A
T4 sequence (P08913 1-465): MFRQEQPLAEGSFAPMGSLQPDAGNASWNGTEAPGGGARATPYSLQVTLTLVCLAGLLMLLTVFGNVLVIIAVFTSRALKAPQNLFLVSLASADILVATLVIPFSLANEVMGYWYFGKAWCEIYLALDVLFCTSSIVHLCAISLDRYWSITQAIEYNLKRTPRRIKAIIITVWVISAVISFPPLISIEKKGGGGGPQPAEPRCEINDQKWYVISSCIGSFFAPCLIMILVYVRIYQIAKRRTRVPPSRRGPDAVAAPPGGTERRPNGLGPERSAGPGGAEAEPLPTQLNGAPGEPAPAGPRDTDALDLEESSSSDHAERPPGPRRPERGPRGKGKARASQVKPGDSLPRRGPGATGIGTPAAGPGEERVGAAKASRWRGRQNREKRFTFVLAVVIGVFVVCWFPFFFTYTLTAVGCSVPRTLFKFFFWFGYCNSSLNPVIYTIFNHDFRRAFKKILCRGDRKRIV
As to the kind of experiment: Binding at human α2A adrenergic receptor. The conditions noted are these: Table 8; read-out: hα2A Ki.
Text: as §1, §2

Test [6] deals with T5, serotonin (5HT) transporter (Rattus norvegicus, UniProt P31652).
T5 construct: evaluated at native, tissue-derived transporters; from tissue
The test is described as follows: Binding at native serotonin transporter (5HT uptake). As to conditions: Table 8. The procedure: as §3, §2

The target in test [7] is T6, human α2C adrenergic receptor (Homo sapiens, UniProt P18825).
T6 construct: host or cells: LM(tk-) cells, line L-α2C
T6 sequence (P18825 1-462): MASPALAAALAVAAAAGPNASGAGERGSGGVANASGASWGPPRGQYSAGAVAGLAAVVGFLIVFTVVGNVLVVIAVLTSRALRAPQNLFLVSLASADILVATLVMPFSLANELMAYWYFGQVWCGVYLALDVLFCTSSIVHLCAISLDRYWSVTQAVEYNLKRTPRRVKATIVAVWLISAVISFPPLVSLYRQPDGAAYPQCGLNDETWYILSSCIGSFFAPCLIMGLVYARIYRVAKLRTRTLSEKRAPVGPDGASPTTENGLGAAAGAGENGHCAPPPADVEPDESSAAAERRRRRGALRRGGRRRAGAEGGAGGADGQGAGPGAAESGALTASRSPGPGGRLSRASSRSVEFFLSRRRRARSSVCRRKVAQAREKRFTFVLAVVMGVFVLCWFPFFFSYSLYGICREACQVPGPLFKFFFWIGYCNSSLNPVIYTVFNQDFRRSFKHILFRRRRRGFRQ
The test is described as follows: Binding at human α2C adrenergic receptor. As to conditions: Table 8; read-out: hα2C Ki.
Text: as §1, §2

Test [8] deals with T7, rat NPFF1 receptor (Rattus norvegicus, UniProt Q9EP86).
T7 construct: expressed in transfected cells; host or cells: not given
The test is described as follows: Functional assay (agonist potency, intrinsic activity) at cloned rat NPFF1 receptor. Type of test: cell-based. As to conditions: Table 7, intrinsic activity.

The target in test [9] is T8, rat NPFF2 receptor (Rattus norvegicus, UniProt Q9EQD2).
T8 construct: The full-length NPFF2 was amplified from rat spinal cord cDNA; expressed in transfected cells; host or cells: not given
As to the kind of experiment: Functional assay (agonist potency, intrinsic activity) at cloned rat NPFF2 receptor. Type of test: cell-based. As to conditions: Table 7, intrinsic activity.

For test [10], the target named is T9, human Y4 receptor (Homo sapiens, UniProt P50391).
T9 construct: host or cells: L cells, line L-hY4-3
As to the kind of experiment: Binding at human neuropeptide Y Y4 receptor. As to conditions: Table 8; read-out: hY4 Ki.
Text: (§4) Neuropeptide receptors: Stably transfected cell lines which may be used for binding experiments include, for the Y1 receptor, 293-hY1-5 (deposited Jun. 4, 1996, under ATCC Accession No. CRL-12121); for the Y2 receptor, 293-hY2-10 (deposited Jan. 27, 1994, under ATCC Accession No. CRL-11837); for the Y4 receptor, L-hY4-3 (deposited Jan. 11, 1995, under ATCC Accession No. CRL 11779); and for the Y5 receptor, L-hY5-7 (deposited Nov. 15, 1995, under ATCC Accession No. CRL 11995).
(§5) Binding assays using the NPY receptors may be carried out according to the procedures described in U.S. Pat. No. 5,602,024, the disclosure of which is hereby incorporated by reference in its entirety into this application.
as §2

Test [11] addresses T10, human Y5 receptor (Homo sapiens, UniProt Q15761).
T10 construct: host or cells: L cells, line L-hY5-7
T10 sequence (Q15761 1-445): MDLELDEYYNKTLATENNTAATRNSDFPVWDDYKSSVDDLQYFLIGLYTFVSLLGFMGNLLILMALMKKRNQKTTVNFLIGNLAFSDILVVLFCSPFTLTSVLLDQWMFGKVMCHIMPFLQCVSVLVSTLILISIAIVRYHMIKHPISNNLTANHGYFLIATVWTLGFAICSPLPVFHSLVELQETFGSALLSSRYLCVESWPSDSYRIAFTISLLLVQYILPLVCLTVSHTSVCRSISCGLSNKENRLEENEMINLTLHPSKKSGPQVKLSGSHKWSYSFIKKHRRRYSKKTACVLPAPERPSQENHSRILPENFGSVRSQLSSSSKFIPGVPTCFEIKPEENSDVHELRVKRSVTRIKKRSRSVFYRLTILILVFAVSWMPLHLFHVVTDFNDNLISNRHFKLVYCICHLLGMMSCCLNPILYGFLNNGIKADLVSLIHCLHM
The test is described as follows: Binding at human neuropeptide Y Y5 receptor. As to conditions: Table 8; read-out: hY5 Ki.
Text: as §4, §5, §2

Test [12] has as its target T11, human Y2 receptor (Homo sapiens, UniProt P49146).
T11 construct: host or cells: 293 cells, line 293-hY2-10
T11 sequence (P49146 1-381): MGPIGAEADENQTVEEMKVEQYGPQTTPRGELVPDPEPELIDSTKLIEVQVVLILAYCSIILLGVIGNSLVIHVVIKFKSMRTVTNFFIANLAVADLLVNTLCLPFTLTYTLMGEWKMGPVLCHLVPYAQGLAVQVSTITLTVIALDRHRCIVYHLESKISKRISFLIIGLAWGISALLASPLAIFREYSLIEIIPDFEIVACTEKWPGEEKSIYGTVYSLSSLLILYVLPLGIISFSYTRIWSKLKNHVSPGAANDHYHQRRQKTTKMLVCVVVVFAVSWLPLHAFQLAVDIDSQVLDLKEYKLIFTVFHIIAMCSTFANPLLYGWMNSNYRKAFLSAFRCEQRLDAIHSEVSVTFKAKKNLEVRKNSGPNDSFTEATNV
The test is described as follows: Binding at human neuropeptide Y Y2 receptor. The conditions noted are these: Table 8; read-out: hY2 Ki.
Text: as §4, §5, §2

Test [13] deals with T12, human Y1 receptor (Homo sapiens, UniProt P25929).
T12 construct: host or cells: 293 cells, line 293-hY1-5
T12 sequence (P25929 1-384): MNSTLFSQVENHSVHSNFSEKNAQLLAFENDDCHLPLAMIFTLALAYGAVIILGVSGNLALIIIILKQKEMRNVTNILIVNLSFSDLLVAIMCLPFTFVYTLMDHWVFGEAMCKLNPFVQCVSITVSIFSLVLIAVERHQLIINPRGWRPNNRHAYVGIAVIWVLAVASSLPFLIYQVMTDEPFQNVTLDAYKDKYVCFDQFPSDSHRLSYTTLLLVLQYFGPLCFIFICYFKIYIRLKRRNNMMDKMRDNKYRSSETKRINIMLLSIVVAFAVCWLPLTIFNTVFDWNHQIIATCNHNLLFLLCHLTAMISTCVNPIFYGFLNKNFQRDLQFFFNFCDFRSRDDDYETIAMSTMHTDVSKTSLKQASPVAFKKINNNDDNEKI
The test is described as follows: Binding at human neuropeptide Y Y1 receptor. The conditions noted are these: Table 8; read-out: hY1 Ki.
Text: as §4, §5, §2

A value given as a limit tells only on which side of the number the result lay.

Usually Ki stands for the equilibrium dissociation constant of an inhibitor or competing ligand from its target.

T8 sequence (Q9EQD2 whole entry): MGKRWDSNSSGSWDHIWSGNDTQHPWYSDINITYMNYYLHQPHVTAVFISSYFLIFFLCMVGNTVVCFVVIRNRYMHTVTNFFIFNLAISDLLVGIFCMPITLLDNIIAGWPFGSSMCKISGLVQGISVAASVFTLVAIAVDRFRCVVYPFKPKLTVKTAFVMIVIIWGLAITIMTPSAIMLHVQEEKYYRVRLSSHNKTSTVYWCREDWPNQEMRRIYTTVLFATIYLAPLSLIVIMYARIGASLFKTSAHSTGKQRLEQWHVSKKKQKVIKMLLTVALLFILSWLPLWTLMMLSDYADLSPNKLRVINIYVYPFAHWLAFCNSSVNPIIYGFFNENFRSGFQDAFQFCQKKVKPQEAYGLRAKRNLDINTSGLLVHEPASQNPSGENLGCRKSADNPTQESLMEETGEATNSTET
T3 sequence (Q63380 1-617): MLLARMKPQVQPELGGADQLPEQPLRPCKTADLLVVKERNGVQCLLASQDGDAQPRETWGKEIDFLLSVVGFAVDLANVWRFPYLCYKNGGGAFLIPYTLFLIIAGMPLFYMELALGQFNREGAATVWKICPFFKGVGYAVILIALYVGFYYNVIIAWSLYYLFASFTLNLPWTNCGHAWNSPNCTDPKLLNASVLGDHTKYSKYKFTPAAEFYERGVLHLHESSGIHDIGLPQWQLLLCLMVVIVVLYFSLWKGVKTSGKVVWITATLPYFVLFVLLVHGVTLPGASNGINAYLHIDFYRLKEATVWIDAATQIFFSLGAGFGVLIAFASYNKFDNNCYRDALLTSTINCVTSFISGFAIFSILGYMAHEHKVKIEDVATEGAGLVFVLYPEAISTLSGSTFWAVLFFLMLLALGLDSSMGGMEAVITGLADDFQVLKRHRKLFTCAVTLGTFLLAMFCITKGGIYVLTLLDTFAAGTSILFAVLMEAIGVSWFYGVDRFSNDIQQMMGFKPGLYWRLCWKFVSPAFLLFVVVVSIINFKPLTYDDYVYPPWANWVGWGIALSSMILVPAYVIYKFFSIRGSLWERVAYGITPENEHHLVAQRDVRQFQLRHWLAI
T1 sequence (Q9Y5X5 103-522): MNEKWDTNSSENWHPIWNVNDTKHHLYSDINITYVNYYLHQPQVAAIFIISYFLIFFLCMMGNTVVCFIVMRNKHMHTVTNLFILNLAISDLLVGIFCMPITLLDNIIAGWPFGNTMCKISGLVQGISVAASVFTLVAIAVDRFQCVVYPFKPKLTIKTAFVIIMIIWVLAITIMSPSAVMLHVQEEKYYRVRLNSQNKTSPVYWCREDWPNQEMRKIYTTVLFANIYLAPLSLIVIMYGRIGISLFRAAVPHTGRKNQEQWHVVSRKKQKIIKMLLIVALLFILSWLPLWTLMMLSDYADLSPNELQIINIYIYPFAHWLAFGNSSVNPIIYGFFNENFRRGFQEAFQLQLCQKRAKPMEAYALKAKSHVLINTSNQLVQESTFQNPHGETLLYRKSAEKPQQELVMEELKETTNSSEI
T5 sequence (P31652 whole entry): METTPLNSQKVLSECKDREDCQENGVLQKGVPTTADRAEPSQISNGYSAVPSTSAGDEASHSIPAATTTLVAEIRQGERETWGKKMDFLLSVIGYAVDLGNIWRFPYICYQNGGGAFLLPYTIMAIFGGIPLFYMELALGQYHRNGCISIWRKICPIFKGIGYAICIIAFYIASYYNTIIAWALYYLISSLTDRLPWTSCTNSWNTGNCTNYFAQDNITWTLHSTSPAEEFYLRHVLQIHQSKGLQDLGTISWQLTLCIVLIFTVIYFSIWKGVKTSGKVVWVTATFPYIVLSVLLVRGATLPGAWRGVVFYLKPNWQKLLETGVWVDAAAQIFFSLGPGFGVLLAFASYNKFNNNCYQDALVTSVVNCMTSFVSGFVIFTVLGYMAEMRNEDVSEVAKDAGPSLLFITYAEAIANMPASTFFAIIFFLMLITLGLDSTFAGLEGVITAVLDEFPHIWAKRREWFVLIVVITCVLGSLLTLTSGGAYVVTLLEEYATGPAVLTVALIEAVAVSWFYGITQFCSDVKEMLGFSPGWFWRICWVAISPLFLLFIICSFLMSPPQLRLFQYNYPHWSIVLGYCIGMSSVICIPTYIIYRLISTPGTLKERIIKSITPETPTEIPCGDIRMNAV
T9 sequence (P50391 whole entry): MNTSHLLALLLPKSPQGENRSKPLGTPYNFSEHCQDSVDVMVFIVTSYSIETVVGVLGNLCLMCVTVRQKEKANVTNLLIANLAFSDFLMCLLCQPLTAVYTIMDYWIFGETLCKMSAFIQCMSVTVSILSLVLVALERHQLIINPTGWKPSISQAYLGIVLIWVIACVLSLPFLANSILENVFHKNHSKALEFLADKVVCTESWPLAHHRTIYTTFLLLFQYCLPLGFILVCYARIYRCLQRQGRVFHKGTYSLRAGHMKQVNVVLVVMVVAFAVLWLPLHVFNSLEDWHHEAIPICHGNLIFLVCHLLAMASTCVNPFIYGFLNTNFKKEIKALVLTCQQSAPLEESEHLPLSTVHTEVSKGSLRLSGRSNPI
T7 sequence (Q9EP86 whole entry): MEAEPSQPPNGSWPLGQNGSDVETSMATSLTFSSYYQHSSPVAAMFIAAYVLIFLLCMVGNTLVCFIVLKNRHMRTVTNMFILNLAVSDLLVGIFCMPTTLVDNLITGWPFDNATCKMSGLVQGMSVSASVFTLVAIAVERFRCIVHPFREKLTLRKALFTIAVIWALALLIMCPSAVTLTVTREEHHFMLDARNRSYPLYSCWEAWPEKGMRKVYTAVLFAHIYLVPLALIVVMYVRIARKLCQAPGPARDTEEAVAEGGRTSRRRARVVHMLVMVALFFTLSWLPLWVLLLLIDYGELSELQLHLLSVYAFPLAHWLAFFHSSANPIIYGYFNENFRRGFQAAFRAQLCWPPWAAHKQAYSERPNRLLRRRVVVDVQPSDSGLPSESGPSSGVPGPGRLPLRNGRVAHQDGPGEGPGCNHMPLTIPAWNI

In the case of `CCCCCc1ccc2nc(NC(=N)N)nc(C)c2c1` [Compound 2001A, N-(4-methyl-6-pentyl-2-quinazolinyl)guanidine], the “hNPFF2 IA” value in [1] was found to be 84% NPFF. For the same molecule, the inhibition constant (Ki) in test [2] is 7.41 µM; in test [3], 8.13 µM; in [4] it was 1.16 µM; in test [5], 0.808 µM; in test [6], 0.962 µM; in test [7] it was 1.91 µM. The “rNPFF1 IA” value in test [8] was 71% NPFF. Further, the “rNPFF2 IA” value in test [9] was determined as 103% NPFF.
Take `CCc1ccc2nc(NC(=N)N)cc(C)c2c1` [Compound 4002A, N-(6-ethyl-4-methyl-2-quinolinyl)guanidine]: in [1], the “hNPFF2 IA” value is reported as 69% NPFF. The Ki is 10.4 µM in [2], 12.8 µM in test [3], 0.267 µM in [5] and 1.4 µM in [7]. For the same molecule, in test [9], the “rNPFF2 IA” value stood at 84% NPFF.
With `Cc1cc(NC(=N)N)nc2ccccc12` [Compound 6001A, N-(4-methyl-2-quinolinyl)guanidine], the Ki is 14.3 µM in test [10]; 12.7 µM in test [4]; 0.742 µM in [11]; 10.5 µM in [6]; greater than 50 µM in [12]; greater than 50 µM in test [13].
